# Test results as given in patent US7148229B2, “Sulfonamide substituted xanthine derivatives” (Hoffman-La Roche Inc., priority 2003, dated 2006).
# Target: T1, recombinant human cytosolic PEPCK (GST-PEPCK) (Homo sapiens, UniProt P35558)
# T1 construct: made in house; host or cells: E. coli
# T1 sequence (P35558 1-622): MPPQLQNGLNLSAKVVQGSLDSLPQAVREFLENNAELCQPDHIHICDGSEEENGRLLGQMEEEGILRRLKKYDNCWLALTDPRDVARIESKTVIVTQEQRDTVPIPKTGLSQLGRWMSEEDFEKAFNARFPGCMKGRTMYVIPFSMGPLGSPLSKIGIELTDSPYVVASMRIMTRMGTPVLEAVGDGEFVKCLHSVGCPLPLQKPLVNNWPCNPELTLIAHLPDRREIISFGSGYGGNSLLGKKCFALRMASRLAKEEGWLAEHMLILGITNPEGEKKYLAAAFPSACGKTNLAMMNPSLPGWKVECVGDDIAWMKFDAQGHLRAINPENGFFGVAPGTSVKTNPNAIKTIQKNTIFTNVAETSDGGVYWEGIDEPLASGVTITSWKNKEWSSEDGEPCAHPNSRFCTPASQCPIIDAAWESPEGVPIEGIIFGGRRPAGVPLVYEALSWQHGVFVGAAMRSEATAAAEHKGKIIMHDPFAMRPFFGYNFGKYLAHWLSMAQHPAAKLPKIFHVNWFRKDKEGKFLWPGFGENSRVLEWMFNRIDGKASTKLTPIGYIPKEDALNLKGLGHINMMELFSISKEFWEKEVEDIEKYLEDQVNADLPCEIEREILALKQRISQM
# Test: PEPCK enzyme assay (coupled to pyruvate kinase / lactate dehydrogenase, absorbance at 340 nm)
# Format: biochemical
# Conditions: in vitro PEPCK enzymatic assay; GTP at 3 fold and OAA at 10 fold Km; final DMSO 10%; room temperature, twenty minutes
# Method: E. coli cells expressing GST-PEPCK were suspended in 5 volumes of lysis buffer (50 mM Tris-hydroxymethyl aminomethyl (TRIS), 150 mM sodium chloride (NaCl), 10 mM ethylene-diametetraacetic acid (EDTA), 5 mM dithiothreitol(DTT), 1% Nonidet P-40, pH 7.4) in the presence of protease inhibitors, incubated with lysozyme at 200 micrograms/ml for 30 min. at room temperature, and sonicated 4×30 seconds at 4 degrees C. After centrifugation at 12,000×g for 20 min. to remove insoluble material, the supernatant was loaded onto glutathione Sepharose (Pharmacia), washed with lysis buffer followed by washing with lysis buffer in the absence of NP-40. GST-PEPCK was eluted with the same buffer containing 20 mM glutathione. The eluted protein was concentrated and dialyzed against 25 mM Hepes(N-[2-hydroxyethyl]piperazine-N′[2-ethanesulfonic acid), 150 mM NaCl, 2.5 mM EDTA, 5 mM DTT, 30% glycerol, pH 7.4, and stored at −20° C.
# The inhibitory effect of the compounds of the present invention on PEPCK enzymatic activity was determined using recombinant human cytosolic PEPCK, expressed and purified from E.coli as a GST-fusion. Guanosine triphosphate (GTP) and manganese dependent PEPCK enzyme activity catalyzed the decarboxylation of oxalacetate leading to the formation of guanosine diphosphate (GDP) and phosphoenol pyruvate (PEP). This reaction is coupled to pyruvate kinase and lactate dehydrogenase catalyzed reactions and the overall reaction rate determined by measuring the change in absorbance at 340 nm (Chang, H. C. and Lane M. D., J. Biol. Chem. 241:2413–2420, 1966). The following modifications were made to the protocol: 2.5 μg of recombinant, human cytosolic glutathione-S-transferase (GST)-PEPCK was added to a reaction mixture at room temperature which contained 0.3 mM GTP, 0.3 mM oxaloacetate (OAA), 3 mM magnesium chloride (MgCl2), 0.075 mM manganese chloride (MnCl2), 30 mM potassium phosphates (KPO4), pH 7.6, 1 mM dithiothreitol (DTT), 0.2 mM adenosine diphosphate (ADP), 1 mM nicotinamide adenine dinucleotide, reduced form (NADH), 0.9 Units/ml each of pyruvate kinase and lactate dehydrogenase and 1 mg/ml bovine serum albumin (BSA). Test compounds were added such that final concentration of DMSO was 10%. Reactions were run for twenty minutes.
# Km values for GTP and OAA were determined according to Michelis-Menton conditions as described in Comish-Bowden (Fundamentals of Enzyme Kinetics, 1995) in essentially the coupled assay conditions described above. […] Test compounds were added to reactions over a range of concentrations and IC50's were calculated from plots of inhibitor concentration versus enzyme rate. This method of determination of IC50 values is equally applicable to calculations based on PEPCK cellular assay.
row,Compound,IC50 [nM]
1,"CCCCn1c(=O)n(Cc2ccccc2)c(=O)c2[nH]c(Cc3ccc(NS(C)(=O)=O)cc3)nc21 [Example 24, N-[4-(1-Benzyl-3-butyl-2,6-dioxo-2,3,6,7-tetrahydro-1H-purin-8-ylmethyl)-phenyl]-methanesulfonamide]",7550
2,"Cc1nn(C)cc1S(=O)(=O)N(C)c1ccc(Cc2nc3c([nH]2)c(=O)n(Cc2ccccc2F)c(=O)n3CC2CC2)cc1 [Example 27, 1,3-Dimethyl-1H-pyrazole-4-sulfonic acid {4-[3-cyclopropylmethyl-1-(2-fluoro-benzyl)-2,6-dioxo-2,3,6,7-tetrahydro-1H-purin-8-ylmethyl]-phenyl}-methyl-amide]",1450
3,"CCCCn1c(=O)n(Cc2ccccc2F)c(=O)c2[nH]c(Cc3ccc(S(=O)(=O)Nc4ccccn4)cc3)nc21 [Example 28, 4-[3-Butyl-1-(2-fluoro-benzyl)-2,6-dioxo-2,3,6,7-tetrahydro-1H-purin-8-ylmethyl]-N-pyridin-2-yl-benzenesulfonamide]",2400
4,"CCCCn1c(=O)n(Cc2ccccc2F)c(=O)c2[nH]c(Cc3ccc(S(=O)(=O)Nc4c(C)nn(C)c4C)cc3)nc21 [Example 32, 4-[3-Butyl-1-(2-fluoro-benzyl)-2,6-dioxo-2,3,6,7-tetrahydro-1H-purin-8-ylmethyl]-N-(1,3,5-trimethyl-1H-pyrazol-4-yl)-benzenesulfonamide]",6450

# Further compounds by falling IC50, results first:
row,IC50 [nM],Compound
1,6350,"CCCCn1c(=O)n(Cc2ccccc2F)c(=O)c2[nH]c(Cc3ccc(S(=O)(=O)Nc4ncccn4)cc3)nc21 [Example 31, 4-[3-Butyl-1-(2-fluoro-benzyl)-2,6-dioxo-2,3,6,7-tetrahydro-1H-purin-8-ylmethyl]-N-pyrimidin-2-yl-benzenesulfonamide]"
2,4100,"CCCCn1c(=O)n(Cc2ccccc2F)c(=O)c2[nH]c(Cc3ccc(S(=O)(=O)Nc4cccnc4)cc3)nc21 [Example 30, 4-[3-Butyl-1-(2-fluoro-benzyl)-2,6-dioxo-2,3,6,7-tetrahydro-1H-purin-8-ylmethyl]-N-pyridin-3-yl-benzenesulfonamide]"
3,2400,"CCCCn1c(=O)n(Cc2ccccc2F)c(=O)c2[nH]c(Cc3ccc(S(=O)(=O)Nc4ccncc4)cc3)nc21 [Example 29, 4-[3-Butyl-1-(2-fluoro-benzyl)-2,6-dioxo-2,3,6,7-tetrahydro-1H-purin-8-ylmethyl]-N-pyridin-4-yl-benzenesulfonamide]"
4,980,"Cc1nn(C)c(Cl)c1S(=O)(=O)Nc1ccc(Cc2nc3c([nH]2)c(=O)n(Cc2ccccc2F)c(=O)n3CC2CCC2)nc1 [Example 26, 5-Chloro-1,3-dimethyl-1H-pyrazole-4-sulfonic acid {6-[3-cyclobutylmethyl-1-(2-fluoro-benzyl)-2,6-dioxo-2,3,6,7-tetrahydro-1H-purin-8-ylmethyl]-pyridin-3-yl}-amide]"
5,880,"CCCCn1c(=O)n(Cc2ccccc2F)c(=O)c2[nH]c(Cc3ccc(NS(=O)(=O)c4c(C)nn(C)c4Cl)cn3)nc21 [Example 25, 5-Chloro-1,3-dimethyl-1H-pyrazole-4-sulfonic acid {6-[3-butyl-1-(2-fluoro-benzyl)-2,6-dioxo-2,3,6,7-tetrahydro-1H-purin-8-ylmethyl]-pyridin-3-yl}-amide]"
